Test results reported in patent US12653859B2, “Peptides and medical uses thereof” (Anbition S.R.L., priority 2018, dated 2026).
Blank lines part the entries; values can stand above or below the compound they belong to.

Legend:
[1] = Serum protease stability in 10% fetal calf serum (RP-HPLC); assay type: in vitro ADME; settings: 10% FCS
Protocol: The stability of the peptide iVR1-Cys in 10% serum (fetal calf serum, FCS) in a 50 mM phosphate buffer solution, pH 7.3, at 168 h was determined as described by Ponticelli et al., relying on a method based on RP-HPLC chromatography, described therein [Ponticelli et al., J Biol Chem. 2008 Dec. 5; 283 (49): 34250-9].
The reference curve was constructed by dissolving the compound in DMSO at increasing concentrations of between 0.1 μmol/L and 1000 μmol/L in order to have complete dissolution. The concentration of the molecule left in contact with 10% FCS at the initial concentration of 10 μmol/L was then determined by drawing 3 aliquots at time t=0, then every hour in the first 12 hours and then at 24, 72, 120, and 168 h. The aliquots were diluted 1:1 with acetic acid 0.1 M in order to detach any peptide bound to the albumin, centrifuged to remove any precipitated materials and analyzed by RP-HPLC under the conditions reported in Ponticelli et al. The amount of residual peptide detected in the aliquots, expressed as a percentage relative to the initial amount, was plotted as a function of time. The results are shown in Table VII as the mean of the three determinations±the standard deviation (SD).

[2] = target: T1, VEGF-A/VEGFR-1 interaction (Homo sapiens, UniProt P17948); assay: ELISA competition assay of VEGF-A binding to VEGFR-1; settings: tetrameric peptides of formula (II) with Y2 different from D-cysteine; read-out: IC50 of inhibition of the interaction VEGF-A/VEGFR-1
T1 construct: the form consisting of the seven extracellular domains of the receptor fused to the Fc domain of human IgG; purchased R&D Systems 321-FL (receptor); 293-VE (VEGF-A)
T1 sequence (P17948 27-758 limits assumed): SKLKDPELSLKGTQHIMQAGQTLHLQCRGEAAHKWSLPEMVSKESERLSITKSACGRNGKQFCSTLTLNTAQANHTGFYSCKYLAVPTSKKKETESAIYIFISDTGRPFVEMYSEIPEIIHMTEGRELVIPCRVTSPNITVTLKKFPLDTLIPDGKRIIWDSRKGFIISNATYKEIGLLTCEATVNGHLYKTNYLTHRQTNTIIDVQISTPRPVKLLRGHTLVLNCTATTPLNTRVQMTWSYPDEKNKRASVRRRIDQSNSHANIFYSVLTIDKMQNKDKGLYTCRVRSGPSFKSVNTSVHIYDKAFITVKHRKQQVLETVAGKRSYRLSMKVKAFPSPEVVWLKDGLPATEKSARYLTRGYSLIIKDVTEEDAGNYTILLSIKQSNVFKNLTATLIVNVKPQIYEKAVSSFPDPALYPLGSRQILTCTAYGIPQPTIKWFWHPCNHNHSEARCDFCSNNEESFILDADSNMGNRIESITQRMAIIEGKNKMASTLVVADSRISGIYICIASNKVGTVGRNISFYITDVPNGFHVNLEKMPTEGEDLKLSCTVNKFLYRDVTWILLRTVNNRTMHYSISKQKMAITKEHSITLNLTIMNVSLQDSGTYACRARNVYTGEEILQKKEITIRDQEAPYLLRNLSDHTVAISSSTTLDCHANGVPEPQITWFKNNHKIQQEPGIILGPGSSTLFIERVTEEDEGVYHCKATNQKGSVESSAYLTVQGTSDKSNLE
Protocol: The binding reaction was conducted for one hour at 37° C., followed by one hour at room temperature. At the end of the binding and/or competition step, anti-human-PIGF biotinylated polyclonal antibodies (R&D Systems, cat No. BAF264) or anti-human-VEGF-A (R&D Systems, cat No. BAF293) were added to the wells at the concentration of 300 ng/ml in PBET. After one hour of incubation at 37° C. followed by one hour at room temperature, an HRP-conjugated avidin-streptavidin system (Vectastain elite ABC kit) and a substrate for HRP (o-phenylenediamine-Sigma, cat No. P1526) were added to the wells. Quantization was performed by determining the absorbance at 490 nm. Any inhibitory activity of the peptides was expressed in terms of % of residual binding, comparing the data obtained for the binding of PIGF or VEGF-A to the receptors in the presence of the tetrameric peptides with those in the absence of the same. iVR1 represented the positive control of the inhibition of the PIGF/VEGFR-1 or VEGF-A/VEGFR-1 interaction.

% residual peptide ± SD ([1]; 0 h, 50 mM phosphate buffer pH 7.3, initial 10 μmol/L): 101 ± 4% | remaining at 1 h, 10 μmol/L ([1]; cattle (fetal calf), 10% fetal calf serum in phosphate buffer, 1 h, pH 7.3, read-out: % residual peptide ± SD): 100 ± 11% | remaining at 2 h, 10 μmol/L ([1]; cattle (fetal calf), 10% fetal calf serum in phosphate buffer, 2 h, pH 7.3, read-out: % residual peptide ± SD): 99 ± 7% | remaining at 3 h, 10 μmol/L ([1]; cattle (fetal calf), 10% fetal calf serum in phosphate buffer, 3 h, pH 7.3, read-out: % residual peptide ± SD): 98 ± 5% | remaining at 4 h, 10 μmol/L ([1]; cattle (fetal calf), 10% fetal calf serum in phosphate buffer, 4 h, pH 7.3, read-out: % residual peptide ± SD): 97 ± 4% | remaining at 5 h, 10 μmol/L ([1]; cattle (fetal calf), 10% fetal calf serum in phosphate buffer, 5 h, pH 7.3, read-out: % residual peptide ± SD): 96 ± 5% | remaining at 6 h, 10 μmol/L ([1]; cattle (fetal calf), 10% fetal calf serum in phosphate buffer, 6 h, pH 7.3, read-out: % residual peptide ± SD): 99 ± 6% | remaining at 7 h, 10 μmol/L ([1]; cattle (fetal calf), 10% fetal calf serum in phosphate buffer, 7 h, pH 7.3, read-out: % residual peptide ± SD): 95 ± 8% | remaining at 8 h, 10 μmol/L ([1]; cattle (fetal calf), 10% fetal calf serum in phosphate buffer, 8 h, pH 7.3, read-out: % residual peptide ± SD): 96 ± 5% | remaining at 9 h, 10 μmol/L ([1]; cattle (fetal calf), 10% fetal calf serum in phosphate buffer, 9 h, pH 7.3, read-out: % residual peptide ± SD): 95 ± 6% | remaining at 10 h, 10 μmol/L ([1]; cattle (fetal calf), 10% fetal calf serum in phosphate buffer, 10 h, pH 7.3, read-out: % residual peptide ± SD): 94 ± 10% | remaining at 11 h, 10 μmol/L ([1]; cattle (fetal calf), 10% fetal calf serum in phosphate buffer, 11 h, pH 7.3, read-out: % residual peptide ± SD): 94 ± 8% | remaining at 12 h, 10 μmol/L ([1]; cattle (fetal calf), 10% fetal calf serum in phosphate buffer, 12 h, pH 7.3, read-out: % residual peptide ± SD): 93 ± 4% | remaining at 24 h, 10 μmol/L ([1]; cattle (fetal calf), 10% fetal calf serum in phosphate buffer, 24 h, pH 7.3, read-out: % residual peptide ± SD): 93 ± 6% | remaining at 72 h, 10 μmol/L ([1]; cattle (fetal calf), 10% fetal calf serum in phosphate buffer, 72 h, pH 7.3, read-out: % residual peptide ± SD): 92 ± 7% | remaining at 120 h, 10 μmol/L ([1]; cattle (fetal calf), 10% fetal calf serum in phosphate buffer, 120 h, pH 7.3, read-out: % residual peptide ± SD): 91 ± 5% | remaining at 168 h, 10 μmol/L ([1]; cattle (fetal calf), 10% fetal calf serum in phosphate buffer, 168 h, pH 7.3, read-out: % residual peptide ± SD): 92 ± 8%
Compound: NC(=O)[C@@H](CS)NC(=O)C(CCCCNC(=O)C(CCCCNC(=O)[C@H](CC1CCCCC1)NC(=O)C(CSCc1ccccc1)NC(=O)[C@H](N)CCC(=O)O)NC(=O)[C@H](CC1CCCCC1)NC(=O)C(CSCc1ccccc1)NC(=O)[C@H](N)CCC(=O)O)NC(=O)C(CCCCNC(=O)[C@H](CC1CCCCC1)NC(=O)C(CSCc1ccccc1)NC(=O)[C@H](N)CCC(=O)O)NC(=O)[C@H](CC1CCCCC1)NC(=O)C(CSCc1ccccc1)NC(=O)[C@H](N)CCC(=O)O (some centres unmarked) [iVR1-Cys]

IC50 [2]: 2.43 ± 3 µM
Compound: D-serine

IC50 [2]: 4.62 ± 1.4 µM
Compound: L-methionine sulfone

IC50 [2]: 2.03 ± 0.2 µM
Compound: L-cysteine
